Reference: patent US20240360179A1, “STAPLED PEPTIDES AND METHODS THEREOF” (FOG PHARMACEUTICALS, INC., priority 2021, published 2024)

Key:
[1] = target: T1, full-length B-Catenin (Uniprot ID P35222) (Homo sapiens, UniProt P35222); format: binding; details: read-out: Competition Fluorescence Polarization IC50
T1 construct: 10 nM full-length B-Catenin (Uniprot ID P35222)
T1 sequence (P35222 1-781): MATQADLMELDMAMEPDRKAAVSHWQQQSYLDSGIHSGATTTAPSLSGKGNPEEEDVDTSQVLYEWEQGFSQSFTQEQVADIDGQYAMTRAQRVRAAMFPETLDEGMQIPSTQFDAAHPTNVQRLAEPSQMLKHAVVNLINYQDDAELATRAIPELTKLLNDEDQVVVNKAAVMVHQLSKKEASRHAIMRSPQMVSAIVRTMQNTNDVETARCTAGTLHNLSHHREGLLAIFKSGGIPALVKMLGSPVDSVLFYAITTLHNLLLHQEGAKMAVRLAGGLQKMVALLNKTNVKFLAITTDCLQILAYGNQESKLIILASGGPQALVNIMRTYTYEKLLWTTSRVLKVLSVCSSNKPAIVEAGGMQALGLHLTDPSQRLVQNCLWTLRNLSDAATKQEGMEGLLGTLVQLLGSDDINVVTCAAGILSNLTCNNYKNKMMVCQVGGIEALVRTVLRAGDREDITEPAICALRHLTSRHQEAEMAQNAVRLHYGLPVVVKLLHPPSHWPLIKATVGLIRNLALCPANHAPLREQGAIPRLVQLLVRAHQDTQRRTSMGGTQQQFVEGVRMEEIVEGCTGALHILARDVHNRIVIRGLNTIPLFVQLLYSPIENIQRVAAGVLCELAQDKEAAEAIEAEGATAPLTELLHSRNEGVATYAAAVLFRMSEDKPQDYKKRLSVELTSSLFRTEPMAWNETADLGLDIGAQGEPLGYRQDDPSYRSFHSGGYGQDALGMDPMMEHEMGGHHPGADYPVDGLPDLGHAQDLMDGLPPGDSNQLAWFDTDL

[2] = test system: AXIN2 transcripts in COLO320DM cells; assay: qPCR of AXIN2 transcripts in COLO320DM cells; format: cell-based, human
Description: RT-qPCR. […] Relative gene expression levels were monitored using the Taqman Gene Expression probes for AXIN2 (Hs00610344 m1, ThermoFisher), SP5 (Hs01370227-mH, ThermoFisher), RNF43 (Hs00214886-m1, ThermoFisher), NOTUM (Hs00991061-m1, ThermoFisher), CXCL12 (Hs03676656-mH, ThermoFisher).

[3] = target: T2, beta-catenin/TCF4 interaction (Homo sapiens, UniProt P35222); assay: Co-immunoprecipitation of endogenous beta-catenin in DLD1 cells; format: cell-based
T2 construct: endogenous in cells; host or cells: DLD1
T2 sequence (P35222 2-781 limits assumed): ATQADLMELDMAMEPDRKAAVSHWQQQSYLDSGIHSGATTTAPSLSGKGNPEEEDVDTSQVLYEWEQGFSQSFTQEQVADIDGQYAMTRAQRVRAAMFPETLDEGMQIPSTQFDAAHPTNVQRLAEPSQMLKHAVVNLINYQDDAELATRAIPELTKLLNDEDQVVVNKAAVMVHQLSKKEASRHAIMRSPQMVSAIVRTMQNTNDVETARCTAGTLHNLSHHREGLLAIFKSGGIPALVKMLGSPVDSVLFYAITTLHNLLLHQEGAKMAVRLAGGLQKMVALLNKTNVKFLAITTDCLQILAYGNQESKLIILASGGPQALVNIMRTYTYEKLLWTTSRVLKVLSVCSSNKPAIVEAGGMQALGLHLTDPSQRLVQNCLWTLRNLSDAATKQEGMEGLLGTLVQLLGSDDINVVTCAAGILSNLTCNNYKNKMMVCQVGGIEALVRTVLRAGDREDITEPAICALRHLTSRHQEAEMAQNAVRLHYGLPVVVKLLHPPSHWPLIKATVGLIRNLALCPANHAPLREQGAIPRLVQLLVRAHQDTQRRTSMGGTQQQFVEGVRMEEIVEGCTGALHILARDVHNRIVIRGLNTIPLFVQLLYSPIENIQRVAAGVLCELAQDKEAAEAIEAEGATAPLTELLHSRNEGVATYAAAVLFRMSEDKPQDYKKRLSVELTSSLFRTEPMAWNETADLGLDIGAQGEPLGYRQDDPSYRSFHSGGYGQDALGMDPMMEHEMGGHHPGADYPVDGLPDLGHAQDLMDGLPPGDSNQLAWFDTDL
Protocol: Co-Immunoprecipitation. […] In some embodiments, for co-IP experiments, DLD1 cells were treated with compounds for a period of time, e.g., 4 hours. […] Briefly, 30 μL of protein A/G magnetic beads were added to each lysate and incubated for 1 hr at room temperature.

**Q.** “Ac-PL3-Glu-Npg-B5-Glu-3COOHF-Aib-Ala-Phe-Lys*3-PyrS2-3Thi-BztA-GlnR*3-Ala-NH2 [I-470]” was tested. Which IC50 [1] did it give?
**A.** 7.5 µM

**Q.** And the “effect on AXIN2 expression level” value ([2]; COLO320DM cells)?
**A.** no or very little or non-significant effect

**Q.** And the IC50 ([2]; Reduction of AXIN2 transcripts in COLO320DM cells)?
**A.** > 20 µM

**Q.** And the “beta-catenin/TCF4 interaction by co-IP and Western blotting” value [3]?
**A.** not
